Data: ChEMBL document CHEMBL1128356, “Antineoplastic agents. 291. Isolation and synthesis of combretastatins A-4, A-5, and A-6(1a)” (1995)

Tests used:
[1] = system: NCI 60 human tumor cell line panel (Homo sapiens); assay: In vitro inhibitory activity against NCI 60 human tumor cell line panel
[2] = system: Panel (Carcinoma cell lines); assay: In vitro antitumor activity against human tumor cancer cell lines; type: functional

SMILES: COc1ccc(/C=C\c2cc(O)c(OC)c(OC)c2)cc1OC
- GI50 [1]: 1650 nM

SMILES: COc1ccc(/C=C/c2cc(O)c(OC)c(OC)c2)cc1OC
- GI50 [1]: > 100000 nM

SMILES: COc1ccc(/C=C\c2cc(OC)c(OC)c(OC)c2)cc1O [COMBRETASTATIN A4]
- GI50 [1]: 3.2 nM

SMILES: COc1ccc(/C=C\c2cc(OC)c(OC)c(OC)c2)c(O)c1O [COMBRETASTATIN A-1]
- GI50 [2]: 16.2 nM

SMILES: COc1ccc(/C=C\c2cc(OC)c3c(c2)OCO3)cc1O [Combretastatin A-2]
- GI50 [2]: 31.6 nM
